The structures appear in SMILES notation. Numbers after ± are expanded uncertainties.

The nature of the series: activity coefficient (dimensionless); of the first substance listed, at infinite dilution; xn = mol fraction of the nth substance listed. Particulars: 298.15 K; 238 kPa; Liquid; Chromatography; x1 = 0.
Take `Cc1ccccc1C` [1,2-dimethylbenzene] + CNC=O: the activity coefficient is 9.8 ± 1.1.
In the case of `Cc1cccc(C)c1` [1,3-dimethylbenzene] + CNC=O it was 10.8 ± 0.7; in that of `Cc1ccc(C)cc1` [1,4-dimethylbenzene] + CNC=O, 10.4 ± 0.9.
The value for `C=CCCCCC=C` [1,7-octadiene] + CNC=O was 23 ± 2.1.
In the case of `Cc1ccc(C(C)C)cc1` [1-(1-methylethyl)-4-methylbenzene] + CNC=O it was 22.3 ± 2.1; in that of `C=CC1CC=CCC1` (centres undefined) [4-ethenylcyclohexene] + CNC=O, 16.6 ± 1.9.
Regarding `c1ccccc1` [benzene] + CNC=O, the activity coefficient is 4.8 ± 0.4.
In the case of `Brc1ccccc1` [bromobenzene] + CNC=O, the activity coefficient was 6.3 ± 0.5.
For the compound `Clc1ccccc1` [chlorobenzene] + CNC=O, the activity coefficient was determined as 5.2 ± 0.6.
The value for `C1CCCCCCC1` [cyclooctane] + CNC=O was 42.3 ± 3.3; that for `CCCCCCCCCC` [decane] + CNC=O was 194 ± 9.1; that for `Fc1ccccc1` [fluorobenzene] + CNC=O was 4 ± 0.3.
As for `CCCCCCC` [heptane] + CNC=O, the activity coefficient is 60.5 ± 4.8.
`CCCCCC` [hexane] + CNC=O: the activity coefficient amounted to 38.6 ± 7.5.
In the case of `c1ccc2ccccc2c1` [naphthalene] + CNC=O, the activity coefficient turned out to be 26.7 ± 3.7.
The value for `CCCCCCCCC` [nonane] + CNC=O was 122 ± 6.3; that for `CCCCCCCC` [octane] + CNC=O was 83.9 ± 4.5.
In the case of `Cc1ccccc1` [toluene] + CNC=O it was 7 ± 0.6; in that of `CCCCCCCCCCC` [undecane] + CNC=O, 318 ± 32.

Source of the values: the NIST ThermoML archive (doi:10.1016/j.tca.2015.11.010).
